Each structure is given as a SMILES string. Values joined by “and” are separate entries in the source; they are usually repeats but may differ in a detail not shown here. Equal entries are not always repeated. Where two headings read alike, the source gives them in different places.

For experiment [1], the system named is ebolavirus (EBOV) strain Zaire. Nature of the experiment: organism not typed. Type of experiment: cell-based, Ebola virus. The conditions noted are these: read-out: EC50 (nM) Antigen expression (high content imaging) Ebola Hela.
Experiment [2] deals with EBOV-GFP (Ebola virus expressing the GFP reporter gene). Nature of the experiment: microbe, parasite or virus in culture. Type of experiment: cell-based. To be noted: read-out: EC50 (nM) Reporter Virus EBOV-GFP HMVEC-TERT.
Experiment [3] has as its system ebolavirus (EBOV) strain Zaire. The experiment in a line: organism not typed. The conditions noted are these: read-out: EC50 (nM) Antigen expression (high content imaging) Ebola Macrophage. Type of experiment: cell-based, Ebola virus.
For experiment [4], the system named is EBOV-GFP (Ebola virus expressing the GFP reporter gene). The experiment in a line: microbe, parasite or virus in culture. Type of experiment: cell-based. The conditions noted are these: Zaire ebolavirus, Huh-7, read-out: EC50 (nM) Reporter Virus EBOV-GFP Huh-7.
Experiment [5] concerns NiV GFP (Nipah virus expressing the GFP reporter gene). Nature of the experiment: microbe, parasite or virus in culture. Type of experiment: cell-based. To be noted: Henipavirus nipahense, read-out: EC50 (nM) Reporter Virus NiV GFP HMVEC-TERT.
Experiment [6] relates to NiV-Luc (Nipah virus expressing the luciferase reporter gene). The experiment in a line: microbe, parasite or virus in culture. Type of experiment: cell-based. To be noted: Henipavirus nipahense, read-out: EC50 (nM) Reporter Virus NiV Luc HMVEC-TERT.
Experiment [7] concerns Ebola virus (EBOV). The experiment in a line: microbe, parasite or virus in culture. Type of experiment: cell-based. The conditions noted are these: Zaire ebolavirus, Huh-7, read-out: EC50 (nM) RNA Ebola Huh-7.
In experiment [8] the test system is Ebola virus (EBOV). The experiment in a line: microbe, parasite or virus in culture. Type of experiment: cell-based. The conditions noted are these: Zaire ebolavirus, Huh-7, read-out: EC50 (nM) Yield Ebola Huh-7.

As usually defined, the EC50 is the midpoint of the concentration-response curve. With `C[C@H](NP(=O)(OC[C@H]1O[C@@](C#N)(c2ccc3c(N)ncnn23)[C@H](O)[C@@H]1O)Oc1ccccc1)C(=O)OC1CCC1` (stereo partly drawn) [Compound 24, (2S)-cyclobutyl 2-(((((2R,3S,4R,5R)-5-(4-aminopyrrolo[2,1-f][1,2,4]triazin-7-yl)-5-cyano-3,4-dihydroxytetrahydrofuran-2-yl)methoxy)(phenoxy)phosphoryl)amino)propanoate], the EC50 in experiment [1] (HeLa) came to 785 nM.
As for `C[C@H](NP(=O)(OC[C@H]1O[C@@](C#N)(c2ccc3c(N)ncnn23)[C@H](O)[C@@H]1O)Oc1ccccc1)C(=O)OC1CCCC1` (stereo partly drawn) [Compound 28, (2S)-cyclopentyl 2-(((((2R,3S,4R,5R)-5-(4-aminopyrrolo[2,1-f][1,2,4]triazin-7-yl)-5-cyano-3,4-dihydroxytetrahydrofuran-2-yl)methoxy)(phenoxy)phosphoryl)amino) propanoate], the EC50 in experiment [1] (HeLa) came out at 975 nM; in experiment [1], 682 nM; in experiment [2] (Zaire ebolavirus), 102 nM; in experiment [3] (Macrophage) it was 120 nM.
With `CCC(CC)COC(=O)[C@H](C)N[P@@](=O)(OC[C@H]1O[C@@](C#N)(c2ccc3c(N)ncnn23)[C@H](O)[C@@H]1O)Oc1ccccc1` (single isomer, unassigned) [(R)-Diastereomer of Compound 9], the EC50 in experiment [1] (HeLa) was found to be 210 nM; in experiment [2] (Zaire ebolavirus) it was 62 nM; in experiment [3] (Macrophage), 112 nM; in experiment [4], 70 nM.
In the case of `CCC(CC)COC(=O)[C@H](C)NP(=O)(OC[C@H]1O[C@@](C#N)(c2ccc3c(N)ncnn23)[C@H](O)[C@@H]1O)Oc1ccccc1` (stereo partly drawn) [Compound 9, (2S)-2-ethylbutyl 2-(((((2R,3S,4R,5R)-5-(4-aminopyrrolo[2,1-f][1,2,4]triazin-7-yl)-5-cyano-3,4-dihydroxytetrahydrofuran-2-yl)methoxy)(phenoxy)phosphoryl)amino) propanoate], the EC50 in experiment [5] was 60 nM; in experiment [1] (HeLa) it was 290 nM; in experiment [1], 270 nM; in experiment [6] it was 30 nM; in experiment [3], 501 nM; in experiment [7], 1 nM. For the same compound, the EC50 in experiment [8] came to 1030 nM; in experiment [4], 90 nM.
In the case of `CC(C)OC(=O)[C@H](Cc1ccccc1)NP(=O)(OC[C@H]1O[C@@](C#N)(c2ccc3c(N)ncnn23)[C@H](O)[C@@H]1O)Oc1ccccc1` (stereo partly drawn) [Compound 25, (2S)-isopropyl 2-(((((2R,3S,4R,5R)-5-(4-aminopyrrolo[2,1-f][1,2,4]triazin-7-yl)-5-cyano-3,4-dihydroxytetrahydrofuran-2-yl)methoxy)(phenoxy)phosphoryl)amino)-3-phenylpropanoate], the 50% effective concentration (EC50) in experiment [1] (HeLa) came to 6720 nM.
On to `CCC(CC)COC(=O)[C@H](C)N[P@](=O)(OC[C@H]1O[C@@](C#N)(c2ccc3c(N)ncnn23)[C@H](O)[C@@H]1O)Oc1ccccc1` (single isomer, unassigned) [(S)-Diastereomer of Compound 9 (Compound 32)], for which the EC50 in experiment [1] (HeLa) was 100 nM; in experiment [2] (Zaire ebolavirus) it was 40 nM; in experiment [3] (Macrophage), 87 nM; in experiment [4] it was 81 nM.
For the compound `C[C@H](NP(=O)(OC[C@H]1O[C@@](C#N)(c2ccc3c(N)ncnn23)[C@H](O)[C@@H]1O)Oc1ccccc1)C(=O)OC1CCCCC1` (stereo partly drawn) [Compound 29, (2S)-cyclohexyl 2-(((((2R,3S,4R,5R)-5-(4-aminopyrrolo[2,1-f][1,2,4]triazin-7-yl)-5-cyano-3,4-dihydroxytetrahydrofuran-2-yl)methoxy)(phenoxy)phosphoryl)amino) propanoate], the half-maximal effective concentration (EC50) in experiment [1] (HeLa) came to 275 nM.
Take `CC(C)OC(=O)C(C)(C)NP(=O)(OC[C@H]1O[C@@](C#N)(c2ccc3c(N)ncnn23)[C@H](O)[C@@H]1O)Oc1ccccc1` (stereo partly drawn) [Compound 31, Isopropyl 2-(((((2R,3S,4R,5R)-5-(4-aminopyrrolo[2,1-f][1,2,4]triazin-7-yl)-5-cyano-3,4-dihydroxytetrahydrofuran-2-yl)methoxy)(phenoxy)phosphoryl)amino)-2-methylpropanoate]: the EC50 in experiment [1] (HeLa) is over 20000 nM; in experiment [1] it was over 10000 nM; in experiment [2] (Zaire ebolavirus) it was 11100 nM; in experiment [3] (Macrophage) it was 1230 nM.
On to `CCOC(=O)[C@H](C)NP(=O)(OC[C@H]1O[C@@](C#N)(c2ccc3c(N)ncnn23)[C@H](O)[C@@H]1O)Oc1ccccc1` (stereo partly drawn) [Compound 10, (2S)-ethyl 2-(((((2R,3S,4R,5R)-5-(4-aminopyrrolo[2,1-f][1,2,4]triazin-7-yl)-5-cyano-3,4-dihydroxytetrahydrofuran-2-yl)methoxy)(phenoxy)phosphoryl)amino)propanoate], for which, in experiment [1] (HeLa), the EC50 came out at 3200 nM.
Consider `CC(C)(C)C(=O)SCCOP(=O)(OCCSC(=O)C(C)(C)C)OC[C@H]1O[C@@](C#N)(c2ccc3c(N)ncnn23)[C@H](O)[C@@H]1O` [Compound 15], for which the EC50 in experiment [1] (HeLa) stood at 520 nM; in experiment [2] (Zaire ebolavirus), 630 nM; in experiment [3] (Macrophage) it was 501 nM; in experiment [4], 271 nM.
With `CCOC(=O)[C@@H](NP(=O)(OC[C@H]1O[C@@](C#N)(c2ccc3c(N)ncnn23)[C@H](O)[C@@H]1O)Oc1ccccc1)C(C)C` (stereo partly drawn) [Compound 22, (2S)-ethyl 2-(((((2R,3S,4R,5R)-5-(4-aminopyrrolo[2,1-f][1,2,4]triazin-7-yl)-5-cyano-3,4-dihydroxytetrahydrofuran-2-yl)methoxy)(phenoxy)phosphoryl)amino)-3-methylbutanoate], the EC50 in experiment [1] (HeLa) amounted to 11600 nM.
For the compound `C[C@H](N[P@](=O)(OC[C@H]1O[C@@](C#N)(c2ccc3c(N)ncnn23)[C@H](O)[C@@H]1O)Oc1ccccc1)C(=O)OCC(C)(C)C` [Compound 27, (S)-neopentyl 2-(((S)-(((2R,3S,4R,5R)-5-(4-aminopyrrolo[2,1-f][1,2,4]triazin-7-yl)-5-cyano-3,4-dihydroxytetrahydrofuran-2-yl)methoxy)(phenoxy)phosphoryl)amino) propanoate], the EC50 in experiment [1] (HeLa) was 182 nM; in experiment [2] (Zaire ebolavirus), 82 nM.
Regarding `CCOC(=O)C(C)(C)NP(=O)(OC[C@H]1O[C@@](C#N)(c2ccc3c(N)ncnn23)[C@H](O)[C@@H]1O)Oc1ccccc1` (stereo partly drawn) [Compound 30, ethyl 2-(((((2R,3S,4R,5R)-5-(4-aminopyrrolo[2,1-f][1,2,4]triazin-7-yl)-5-cyano-3,4-dihydroxytetrahydrofuran-2-yl)methoxy)(phenoxy)phosphoryl)amino)-2-methylpropanoate], the EC50 is over 20000 nM in experiment [1] (HeLa), 11100 nM in experiment [2] (Zaire ebolavirus) and 1230 nM in experiment [3] (Macrophage).
As to `CCOC(=O)[C@H](Cc1ccccc1)NP(=O)(OC[C@H]1O[C@@](C#N)(c2ccc3c(N)ncnn23)[C@H](O)[C@@H]1O)Oc1ccccc1` (stereo partly drawn) [Compound 21, (2S)-ethyl 2-(((((2R,3S,4R,5R)-5-(4-aminopyrrolo[2,1-f][1,2,4]triazin-7-yl)-5-cyano-3,4-dihydroxytetrahydrofuran-2-yl)methoxy)(phenoxy)phosphoryl)amino)-3-phenylpropanoate], the EC50 in experiment [2] (Zaire ebolavirus) is 905 nM; in experiment [2], 473 nM; in experiment [3] (Macrophage), 270 nM.
Turning to `CC(C)OC(=O)[C@H](C)NP(=O)(OC[C@H]1O[C@@](C#N)(c2ccc3c(N)ncnn23)[C@H](O)[C@@H]1O)Oc1ccccc1` (stereo in doubt) [Compound 23, (S)-isopropyl 2-(((R)-(((2R,3S,4R,5R)-5-(4-aminopyrrolo[2,1-f][1,2,4]triazin-7-yl)-5-cyano-3,4-dihydroxytetrahydrofuran-2-yl)methoxy)(phenoxy)phosphoryl)amino)propanoate], the EC50 was 1650 nM in experiment [1] (HeLa); 1840 nM in experiment [1]; 458 nM in experiment [2] (Zaire ebolavirus); 243 nM in experiment [3] (Macrophage); 350 nM and 297 nM in experiment [3].
`COC(=O)[C@H](C)N[P@](=O)(OC[C@H]1O[C@@](C#N)(c2ccc3c(N)ncnn23)[C@H](O)[C@@H]1O)Oc1ccccc1` [Compound 26, (S)-methyl 2-(((S)-(((2R,3S,4R,5R)-5-(4-aminopyrrolo[2,1-f][1,2,4]triazin-7-yl)-5-cyano-3,4-dihydroxytetrahydrofuran-2-yl)methoxy)(phenoxy)phosphoryl)amino)propanoate]: the EC50 is 970 nM in experiment [1] (HeLa); 1100 nM in experiment [1]; 283 nM in experiment [2] (Zaire ebolavirus); 1180 nM in experiment [3] (Macrophage); 1290 nM in experiment [3].

(Values after patent US20160361330A1 (priority 2014, published 2016).)
